Test results: US20100099113A1, “MINIMIZED SMALL PEPTIDES WITH HIGH AFFINITY FOR FACTOR VIII AND FACTOR VIII-LIKE PROTEINS” (Technische Universitat Muenchen, priority 2006, published 2010)
Where no end group is shown, it is not given here. [ ]: non-standard residue; d: D form. Bpa = N[C@@H](Cc1ccc(C(=O)c2ccccc2)cc1)C(=O)O; 1Nal = N[C@@H](Cc1cccc2ccccc12)C(=O)O; 2Nal = N[C@@H](Cc1ccc2ccccc2c1)C(=O)O; Bta = N[C@@H](Cc1csc2ccccc12)C(=O)O; Phg = N[C@H](C(=O)O)c1ccccc1; Abu = CC[C@H](N)C(=O)O

Columns and labels:
[1] = biological target: T1, Plasma-derived (pd-) human Factor VIII (Homo sapiens, UniProt P00451); experiment: Binding of 125I-labeled pd-FVIII to peptide-coated Toyopearl resin (micro-beads assay); details: for % Binding pdFVIII: peptide immobilized on Toyopearl AF-Epoxy-650M resin, 125I-pd-FVIII, 2 hours room temperature, percent of maximal achievable binding (anti-FVIII Mab 8860-coated resin), mean ± SD of four determinations
T1 construct: from tissue; host or cells: human blood plasma (FVIII concentrate)
T1 sequence (P00451 20-1667 limits assumed, one chain of several): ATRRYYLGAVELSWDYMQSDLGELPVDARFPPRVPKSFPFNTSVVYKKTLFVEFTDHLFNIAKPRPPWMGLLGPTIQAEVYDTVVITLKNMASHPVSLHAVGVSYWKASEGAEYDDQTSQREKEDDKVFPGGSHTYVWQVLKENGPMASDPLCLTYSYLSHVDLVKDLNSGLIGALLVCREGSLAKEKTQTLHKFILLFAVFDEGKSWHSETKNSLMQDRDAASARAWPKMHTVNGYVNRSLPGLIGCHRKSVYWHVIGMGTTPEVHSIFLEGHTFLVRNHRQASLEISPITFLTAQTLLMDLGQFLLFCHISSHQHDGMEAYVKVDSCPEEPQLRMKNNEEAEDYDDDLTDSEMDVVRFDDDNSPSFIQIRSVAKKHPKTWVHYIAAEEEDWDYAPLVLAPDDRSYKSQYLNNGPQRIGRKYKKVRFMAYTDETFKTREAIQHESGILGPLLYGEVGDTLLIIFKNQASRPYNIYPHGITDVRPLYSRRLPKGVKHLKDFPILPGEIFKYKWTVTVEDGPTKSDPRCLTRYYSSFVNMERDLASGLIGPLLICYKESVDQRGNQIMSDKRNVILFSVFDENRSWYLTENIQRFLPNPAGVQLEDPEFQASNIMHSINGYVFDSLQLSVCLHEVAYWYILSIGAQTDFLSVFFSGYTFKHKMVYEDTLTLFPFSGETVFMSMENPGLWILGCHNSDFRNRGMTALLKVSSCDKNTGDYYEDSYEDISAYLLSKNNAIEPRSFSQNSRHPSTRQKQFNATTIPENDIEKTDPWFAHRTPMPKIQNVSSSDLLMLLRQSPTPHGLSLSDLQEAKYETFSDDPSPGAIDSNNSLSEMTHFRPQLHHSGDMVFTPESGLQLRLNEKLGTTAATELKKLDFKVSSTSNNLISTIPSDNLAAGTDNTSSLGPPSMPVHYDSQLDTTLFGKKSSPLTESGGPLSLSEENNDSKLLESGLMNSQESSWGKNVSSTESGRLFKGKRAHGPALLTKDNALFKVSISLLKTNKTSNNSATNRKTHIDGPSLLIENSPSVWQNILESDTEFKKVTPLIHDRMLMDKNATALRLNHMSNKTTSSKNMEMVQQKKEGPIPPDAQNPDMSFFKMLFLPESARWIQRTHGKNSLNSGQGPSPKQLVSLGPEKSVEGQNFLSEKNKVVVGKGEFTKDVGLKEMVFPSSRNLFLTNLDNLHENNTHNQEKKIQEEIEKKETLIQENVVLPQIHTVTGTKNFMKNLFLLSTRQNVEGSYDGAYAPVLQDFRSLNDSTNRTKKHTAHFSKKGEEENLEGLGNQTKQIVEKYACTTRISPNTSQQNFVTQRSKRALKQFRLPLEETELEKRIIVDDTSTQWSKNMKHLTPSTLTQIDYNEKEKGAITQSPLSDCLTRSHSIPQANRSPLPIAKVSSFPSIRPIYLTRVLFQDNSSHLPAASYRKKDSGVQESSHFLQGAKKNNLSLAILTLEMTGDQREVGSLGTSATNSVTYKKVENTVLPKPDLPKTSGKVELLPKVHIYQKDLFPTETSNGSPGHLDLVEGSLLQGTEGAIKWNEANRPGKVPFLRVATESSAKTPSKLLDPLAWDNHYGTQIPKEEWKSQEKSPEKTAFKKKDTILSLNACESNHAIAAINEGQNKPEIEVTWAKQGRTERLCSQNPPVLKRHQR
Procedure: Peptides S1 to S84 were immobilized on the Toyopearl AF-Epoxy-650M resin (Tosoh Biosep) as described by Jungbauer et al. For immobilization, 2.5 mg of each peptide was dissolved in 0.25 mL of the immobilization buffer (0.2 M sodium bicarbonate, pH 10.3), and 0.036 g of the dry resin powder (corresponding to 0.125 mL of swollen resin) was added, followed by incubation of the mixture with gentle rotation for 48 hours. Upon incubation for 48 hours the resin was washed once with immobilization buffer, once with 1 M NaCl and then 3 times with binding buffer, and binding of ^125I-labeled pd-FVIII to the peptide-coated and control resin was tested. The coupling density of each peptide in each of the reported experiments was as mentioned in Table 1. The control 0.25 mL portion of the resin was similarly treated in parallel experiment in the absence of peptide and was subsequently used as a control (designated as Background) in ^125I-pd-FVIII binding experiments. ^125I-pd-FVIII Bound/Background ratios were calculated as the amount of ^125I-pd-FVIII, bound to an immobilized peptide, divided by that bound to uncoated control resin, prepared as described above. This ratio represents a Signal/Noise ratio for the micro-beads assay, since ^125I-pd-FVIII bound to peptide represents the signal value and ^125I-pd-FVIII bound to peptide-uncoated resin represents the background (noise) value.
Plasma-derived (pd-) human Factor VIII (FVIII) was purified from concentrate by immunoaffinity chromatography on an anti-FVIII monoclonal antibody column followed by subsequent concentration of pd-FVIII by ion-exchange chromatography using Resource Q HR5/5 column.
The resin with immobilized peptides was washed in the binding buffer (0.01 M Hepes, 0.1 M NaCl, 5 mM CaCl2, 0.01% Tween-80). Subsequently, the resin was diluted in the binding buffer as 1:7 slurry and aliquoted into Eppendorf tubes (40 μL per tube). ^125I-pd-FVIII (100000 cpm in 10 μL) was added to the tubes and the volume of the mixture was adjusted to 100 μL by adding 50 μL of the binding buffer containing 4% BSA to give a 2% final concentration of BSA. After 2 hours of incubation at room temperature on a rotator, the samples were washed 4 times in the binding. After each wash the tubes were centrifuged at 5000 rpm for 1 min in an Eppendorf microcentrifuge, supernatant was discarded, and the resin was re-suspended in the washing buffer, followed by centrifugation under the same conditions. After four washes the tubes with pellet without supernatant were counted for radioactivity. The resin without peptide was processed similarly to account for non-specific pd-FVIII binding to tubes and resin itself, and the radioactivity in this control tube was considered as a background value. Since ^125I-pd-FVIII contains the some fraction damaged during radiolabeling, binding was calculated as a percent of maximal achievable binding, determined in separate experiment with anti-FVIII Mab 8860-coated resin.
All the measurements were performed in duplicates. Each experiment was performed using two independently prepared immobilized peptide samples. The data presented in each table are the mean values of the four determinations: duplicate determination in the two assays performed with beads on which peptides were independently immobilized on the different days. The value of standard deviation of the above quadruplicate determinations (duplicate determinations in two independent experiments) were typically less than 10% of the measured values of ^125I-pd-FVIII binding to peptides.

ReFacto = biological target: T2, ReFacto (Homo sapiens, UniProt P00451, DEL763-1656); experiment: Binding of ReFacto to peptide-coated resin; details: peptide immobilized on resin; Table 1
T2 construct: purchased Wyeth-Ayerst Pharmacia and Upjohn; host or cells: CHO cells
T2 sequence (P00451 with tags, fused parts or gaps DEL763-1656 limits assumed): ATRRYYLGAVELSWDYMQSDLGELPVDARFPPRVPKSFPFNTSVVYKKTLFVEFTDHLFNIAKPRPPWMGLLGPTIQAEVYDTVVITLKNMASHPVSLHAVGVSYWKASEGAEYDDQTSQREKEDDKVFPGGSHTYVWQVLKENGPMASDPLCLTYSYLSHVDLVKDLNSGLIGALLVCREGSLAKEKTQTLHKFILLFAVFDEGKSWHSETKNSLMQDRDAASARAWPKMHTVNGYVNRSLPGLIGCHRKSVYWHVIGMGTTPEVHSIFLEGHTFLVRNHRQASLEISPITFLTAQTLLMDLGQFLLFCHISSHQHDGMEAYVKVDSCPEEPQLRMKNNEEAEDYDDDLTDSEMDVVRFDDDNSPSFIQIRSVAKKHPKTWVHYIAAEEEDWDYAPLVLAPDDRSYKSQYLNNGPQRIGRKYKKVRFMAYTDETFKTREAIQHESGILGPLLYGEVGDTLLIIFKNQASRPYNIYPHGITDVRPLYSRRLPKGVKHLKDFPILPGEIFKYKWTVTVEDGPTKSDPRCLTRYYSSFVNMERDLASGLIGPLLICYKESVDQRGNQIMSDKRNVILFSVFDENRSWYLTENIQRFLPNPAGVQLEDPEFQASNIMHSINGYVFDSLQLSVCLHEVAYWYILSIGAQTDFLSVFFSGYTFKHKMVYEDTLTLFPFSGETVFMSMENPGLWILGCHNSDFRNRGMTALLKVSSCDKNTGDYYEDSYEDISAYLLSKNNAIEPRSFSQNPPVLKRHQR
T2 sequence (P00451 1668-2351 limits assumed): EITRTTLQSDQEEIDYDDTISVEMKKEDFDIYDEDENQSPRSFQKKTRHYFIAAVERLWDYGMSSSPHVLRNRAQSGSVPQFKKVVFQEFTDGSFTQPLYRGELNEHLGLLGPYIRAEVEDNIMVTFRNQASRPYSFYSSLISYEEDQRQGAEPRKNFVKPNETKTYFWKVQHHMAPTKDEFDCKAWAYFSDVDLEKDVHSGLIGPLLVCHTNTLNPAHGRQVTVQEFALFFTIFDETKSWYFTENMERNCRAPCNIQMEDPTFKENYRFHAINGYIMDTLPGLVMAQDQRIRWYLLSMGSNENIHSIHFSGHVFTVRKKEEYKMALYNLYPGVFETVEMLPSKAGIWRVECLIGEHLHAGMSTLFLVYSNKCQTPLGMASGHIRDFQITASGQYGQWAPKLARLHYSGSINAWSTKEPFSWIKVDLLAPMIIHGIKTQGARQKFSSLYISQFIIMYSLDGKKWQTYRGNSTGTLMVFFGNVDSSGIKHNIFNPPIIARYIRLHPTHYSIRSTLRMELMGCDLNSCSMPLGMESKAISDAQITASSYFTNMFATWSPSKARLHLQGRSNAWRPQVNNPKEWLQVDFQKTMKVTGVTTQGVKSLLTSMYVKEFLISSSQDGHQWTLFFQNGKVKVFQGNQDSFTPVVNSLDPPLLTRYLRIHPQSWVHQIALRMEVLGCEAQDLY

[2] = Table 2, peptides with C-terminal cysteine linker immobilized on Toyopearl AF-Epoxy-650M resin
[3] = Table 3, hexapeptides with linker cysteine within the binding sequence

% Binding pdFVIII [1] [%] | % Binding ReFacto (ReFacto) [%] | % Binding Factor VIII [1, 2] [%] | % Binding Factor VIII [1, 3] [%] | Substance
35.3 ± 2.4 | 36.4 ± 2.4 | – | – | Abu-W-E-Y-C [S50]
36.4 ± 2.6 | 38.4 ± 2.6 | – | – | Ac-E-S-W-E-Y-C (Ac-ESWEYC) [S45]
48.6 ± 3.3 | 45.3 ± 3.1 | – | – | C-S-W-E-Y [S20]
38.0 ± 2.4 | 35.1 ± 2.4 | – | – | E-S-W-E-Y-C (ESWEYC) [S44]
48.2 ± 2.8 | 35.6 ± 2.6 | – | – | S-W-D-Y-C [S43]
38.1 ± 2.7 | 42.5 ± 2.8 | – | – | S-W-E-Phg-C [S53]
37.0 ± 2.1 | 25.1 ± 1.9 | – | – | T-W-E-Y-C [S46]
52.0 ± 3.1 | 40.2 ± 2.9 | – | – | Y-H-S-W-D-Y-C (YHSWDYC) [S48]
51.5 ± 2.9 | 36.2 ± 2.1 | – | – | Y-H-S-W-E-Bip(4,4′)-C [S55]
47.5 ± 3.3 | 51.2 ± 3.4 | – | – | Y-H-T-W-D-Y-C (YHTWDYC) [S52]
47.5 ± 2.9 | 38.9 ± 2.8 | – | – | Y-H-T-W-E-Y-C (YHTWEYC) [S47]
53.6 ± 2.7 | – | 54 | – | Y-f-S-W-E-Y-C [S34]
59.7 ± 3.8 | – | – | – | Y-homoC-S-W-E-Y [S5]
35.3 ± 3.0 | – | – | – | YCS[1Nal]EY [S80]
49.4 ± 2.2 | – | – | – | YCS[Bpa]EY [S15]
53.4 ± 5.3 | – | 53 | – | YF[Abu]WEFC [S33]
62.0 ± 4.2 | 53.8 ± 5.0 | – | – | YF[Abu]WEYC [S36]
64.5 ± 4.0 | 54.4 ± 3.8 | – | – | YF[Abu]WEYC [S49]

% Binding pdFVIII [1] [%] | % Binding ReFacto (ReFacto) [%] | % Binding Factor VIII [1, 2] [%] | % Binding Factor VIII [1, 3] [%] | Substance
51.5 ± 3.4 | 51.5 ± 3.4 | – | – | YHSWE[2Nal]C [S56]
52.3 ± 4.1 | 59.2 ± 4.8 | – | – | YHSWE[Bpa]C [S38]
34.9 ± 0.4 | – | – | – | YHSWE[Phg]C [S74]
60.3 ± 2.2 | 47.8 ± 2.1 | – | – | YHS[2Nal]EYC [S42]
39.1 ± 1.2 | – | – | – | YHS[Bpa]EYC [S37]
63.4 ± 3.8 | 49.3 ± 3.5 | – | – | YHS[Bpa]E[Bpa]C [S51]
28.1 ± 0.3 | – | – | – | YHS[Bpa]E[Phg]C [S75]
6.0 ± 0.8 | – | – | – | YHS[Bta]EYC [S78]
46.4 ± 0.8 | – | – | – | YH[Abu]WDYC [S39]
32.3 ± 2.6 | 44.4 ± 2.8 | – | – | YH[Abu]WEYC [S54]
37.1 ± 1.0 | – | – | – | c-y-e-w-s [S35]
75.1 ± 0.6 | – | – | 75 | y-d-w-a-c-y [S17]
53.8 ± 0.5 | – | – | – | y-d-w-t-c-y [S13]
73.4 ± 5.6 | – | – | 73 | y-d-w-v-c-y [S19]
53.6 ± 2.5 | – | – | – | y-e-w-a-c-y [S83]
69.4 ± 6.6 | – | – | 69 | y-e-w-s-c-y [S8]
77.0 ± 4.2 | – | – | – | y-e-w-v-c-y [S84]
